Molecular target: T1, IDO1 (Homo sapiens, UniProt P14902)
T1 construct: endogenous in cells; host or cells: HeLa cells (American Type Culture Collection), induced with human recombinant IFN-γ
Assay: HeLa Cell-Based IDO1 Kyn (Kynurenine) Production Assay
Details: HeLa cells, IDO1 induced by IFN-γ, 0.4 mM L-Trp, 48 hours incubation, Kyn absorbance at 480 nm; read-out: Cell-Based EC50 (nM) Hela IDO1
Description: HeLa Cell-Based IDO1 Kyn (Kynurenine) Production Assay:
The inhibitory activity of IDO1 inhibitors is determined by using a colorimetric reaction to measure Kyn generated from L-Trp (L-Tryptophon) oxidation by cellular IDO1 in HeLa cells after induction of IDO1 expression by IFN-γ. Hela cells were obtained from the American Type Culture Collection and recovered in 10% FBS-containing phenol red-free DMEM medium. Cells were plated onto a 96-well plate (100 μl/well) at 8000 cells per well and kept at 37° C. in a humidified incubator supplied with 5% CO2. 4 hours later, Human recombinant IFN-γ (8901SC, CST) was added to cells (final concentration 100 ng/mL) to stimulate endogenous IDO1. Compounds at different concentrations diluted in dimethylsulfoxide (DMSO) were added simultaneously with IFN-γ and 0.4 mM L-Trp. Cells were kept at 37° C. in a humidified incubator supplied with 5% CO2. After 48 hours of incubation, 100 μl supernatant from each well was removed to a new plate. The protein in the medium was precipitated with the addition of 8 μl 6N trichloroacetic acid. The plate was incubated at 60° C. for 30 minutes and then centrifugation at 2500 rpm for 10 minutes to remove sediments. 80 μl supernatants were carefully removed to a new clean plate and added with an equal volume of 2% 4-(Dimethylamino)benzaldehyde (D2004, Sigma) dissolved in glacial acetic acid. The absorbance at 480 nm wavelength derived from Kyn was measured using a PHERAstar FS plate reader (BMG LABTECH). The IC50 for each compound was derived from fitting the dose-response data to the four-parameter logistic model by using XLfit software (IDBS).

T1 sequence (P14902 whole entry): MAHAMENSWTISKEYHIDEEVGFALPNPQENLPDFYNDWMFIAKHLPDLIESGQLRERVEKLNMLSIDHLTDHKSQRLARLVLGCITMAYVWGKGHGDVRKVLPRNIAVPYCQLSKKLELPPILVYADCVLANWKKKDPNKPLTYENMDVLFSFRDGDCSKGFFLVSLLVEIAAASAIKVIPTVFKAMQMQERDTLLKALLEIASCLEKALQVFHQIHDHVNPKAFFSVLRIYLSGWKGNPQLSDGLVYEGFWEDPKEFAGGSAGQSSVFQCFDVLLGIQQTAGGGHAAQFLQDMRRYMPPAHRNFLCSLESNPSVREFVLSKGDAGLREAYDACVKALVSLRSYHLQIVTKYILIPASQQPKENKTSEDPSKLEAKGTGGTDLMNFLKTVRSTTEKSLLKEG

With `C[C@@H](c1nc2ccc(C(=O)NC3CCCC3)cc2[nH]1)[C@H]1CC[C@@H](c2ccnc3ccc(F)cc32)CC1` [Example 5, N-cyclopentyl-2-((R)-1-((1s,4S)-4-(6-fluoroquinolin-4-yl)cyclohexyl)ethyl)-1H-benzo[d]imidazole-6-carboxamide] the EC50 was 38.8 nM.

For `COC1CCC(NC(=O)c2ccc3nc([C@H](C)[C@H]4CC[C@H](c5ccnc6ccc(F)cc65)CC4)[nH]c3c2)CC1` (stereo partly drawn) [Example 19, 2-((R)-1-((1r,4R)-4-(6-fluoroquinolin-4-yl)cyclohexyl)ethyl)-N-(4-methoxycyclohexyl)-1H-benzo[d]imidazole-6-carboxamide], the EC50 was 193 nM.

`Cc1cc(C(=O)NC2CCC2)cc2nc([C@@H](C)[C@H]3CC[C@@H](c4ccnc5ccc(F)cc54)CC3)[nH]c12` [Example 10a, N-cyclobutyl-2-((R)-1-((1s,4S)-4-(6-fluoroquinolin-4-yl)cyclohexyl)ethyl)-7-methyl-1H-benzo[d]imidazole-5-carboxamide] gave an EC50 of 788 nM.

`COC1CCC(NC(=O)c2ccc3nc([C@H](C)[C@H]4CC[C@@H](c5ccnc6ccc(F)cc65)CC4)[nH]c3c2)CC1` (stereo partly drawn) [Example 18, 2-((R)-1-((1s,4S)-4-(6-fluoroquinolin-4-yl)cyclohexyl)ethyl)-N-(4-methoxycyclohexyl)-1H-benzo[d]imidazole-6-carboxamide] gave an EC50 of 122 nM.

`C[C@@H](c1nc2ccc(C(=O)Nc3ccccc3)cc2[nH]1)[C@H]1CC[C@@H](c2ccnc3ccc(F)cc32)CC1` [Example 14, 2-((R)-1-((1s,4S)-4-(6-fluoroquinolin-4-yl)cyclohexyl)ethyl)-N phenyl-1H-benzo[d]imidazole-6-carboxamide] was tested, and the EC50 was 14.4 nM.

Work on `CNC(=O)c1ccc2[nH]c(C(C)[C@H]3CC[C@@H](c4ccnc5ccc(F)cc54)CC3)nc2c1` (some centres unmarked) [Example 1, 2-(1-((1s,4s)-4-(6-fluoroquinolin-4-yl)cyclohexyl)ethyl)-N-methyl-1H-benzo[d]imidazole-5-carboxamide] yielded an EC50 of 64.1 nM.

With `C[C@@H](c1nc2ccc(C(=O)NCC3(O)CCC3)cc2[nH]1)[C@H]1CC[C@H](c2ccnc3ccc(F)cc32)CC1` [Example 17, 2-((R)-1-((1 r,4R)-4-(6-fluoroquinolin-4-yl)cyclohexyl)ethyl)-N-((1-hydroxycyclobutyl)methyl)-1H-benzo[d]imidazole-6-carboxamide] the EC50 was greater than 1000 nM.

In the case of `CC(c1nc2cc3c(=O)[nH]cnc3cc2[nH]1)[C@H]1CC[C@@H](c2ccnc3ccc(F)cc32)CC1` (some centres unmarked) [Example 25, 2-(1-((1s,4s)-4-(6-fluoroquinolin-4-yl)cyclohexyl)ethyl)-3,7-dihydro-8H-imidazo[4,5-g]quinazolin-8-one], the EC50 is reported as 82.4 nM.

In the case of `CC(c1nc2ccc(C(=O)NC3COC3)cc2[nH]1)C1CCC(c2ccnc3ccc(F)cc23)CC1` (centres unmarked) [Example 11, 2-(1-(4-(6-fluoroquinolin-4-yl)cyclohexyl)ethyl)-N-(oxetan-3-yl)-1H-benzo[d]imidazole-6-carboxamide], the EC50 is reported as 84.1 nM.

`Cc1cc(C(=O)NC2CCC2)cc2nc(C(C)[C@H]3CC[C@@H](c4ccnc5ccc(F)cc54)CC3)[nH]c12` (some centres unmarked) [Example 10, N-cyclobutyl-2-(1-((1s,4s)-4-(6-fluoroquinolin-4-yl)cyclohexyl)ethyl)-7-methyl-1H-benzo[d]imidazole-5-carboxamide] showed an EC50 of 27.1 nM.

In the case of `CONC(=O)c1ccc2nc(C(C)[C@H]3CC[C@@H](c4ccnc5ccc(F)cc54)CC3)[nH]c2c1` (some centres unmarked) [Example 7, 2-(1-((1s,4s)-4-(6-fluoroquinolin-4-yl)cyclohexyl)ethyl)-N-methoxy-1H-benzo[d]imidazole-6-carboxamide], the EC50 is reported as 470 nM.

With `CCNC(=O)c1cc2nc([C@H](C)[C@H]3CC[C@@H](c4ccnc5ccc(F)cc54)CC3)[nH]c2cn1` [Example 26, N-ethyl-2-((R)-1-((1s,4S)-4-(6-fluoroquinolin-4-yl)cyclohexyl)ethyl)-3H-imidazo[4,5-c]pyridine-6-carboxamide] the EC50 was 0.77 nM.

In the case of `CC(C)NC(=O)c1ccc2nc([C@H](C)[C@H]3CC[C@@H](c4ccnc5ccc(F)cc54)CC3)[nH]c2c1` [Example 2, 2-((R)-1-((1s,4S)-4-(6-fluoroquinolin-4-yl)cyclohexyl)ethyl)-N-isopropyl-1H-benzo[d]imidazole-6-carboxamide], the EC50 is reported as 50.6 nM.

`Cc1cc(C(=O)NC2CCC2)cc2nc([C@H](C)[C@H]3CC[C@@H](c4ccnc5ccc(F)cc54)CC3)[nH]c12` [Example 10b, N-cyclobutyl-2-((S)-1-((1s,4R)-4-(6-fluoroquinolin-4 yl)cyclohexyl)ethyl)-7-methyl-1H-benzo[d]imidazole-5-carboxamide] was tested, and the EC50 was 17.1 nM.

`C[C@@H](c1nc2cc(C(=O)NC3CC3)cnc2[nH]1)[C@H]1CC[C@@H](c2ccnc3ccc(F)cc32)CC1` [Example 24, N-cyclopropyl-2-((R)-1-((1s,4S)-4-(6-fluoroquinolin-4-yl)cyclohexyl)ethyl)-3H-imidazo[4,5-b]pyridine-6-carboxamide] showed an EC50 of 24.9 nM.

`C[C@@H](c1nc2ccc(C(=O)NC3CCCCC3)cc2[nH]1)[C@H]1CC[C@@H](c2ccnc3ccc(F)cc32)CC1` [Example 6, N-cyclohexyl-2-((R)-1-((1s,4S)-4-(6-fluoroquinolin-4-yl)cyclohexyl)ethyl)-1H-benzo[d]imidazole-6-carboxamide] showed an EC50 of 40.2 nM.

In the case of `C[C@@H](c1nc2ccc(C(=O)Nc3ccccc3)cc2[nH]1)[C@H]1CC[C@H](c2ccnc3ccc(F)cc32)CC1` [Example 15, 2-((R)-1-((1r,4R)-4-(6-fluoroquinolin-4-yl)cyclohexyl)ethyl)-N-phenyl-1H-benzo[d]imidazole-6-carboxamide], the EC50 is reported as 86.7 nM.

`COCCNC(=O)c1ccc2nc([C@H](C)[C@H]3CC[C@@H](c4ccnc5ccc(F)cc54)CC3)[nH]c2c1` [Example 13, 2-((R)-1-((1s,4S)-4-(6-fluoroquinolin-4-yl)cyclohexyl)ethyl)-N-(2-methoxyethyl)-1H-benzo[d]imidazole-6-carboxamide] gave an EC50 of 62.9 nM.

`CC(c1nc2cnc(C(=O)NC3CC3)cc2[nH]1)[C@H]1CC[C@@H](c2ccnc3ccc(F)cc32)CC1` (mixture of isomers) [Example 22, N-cyclopropyl-2-(1-((1s,4s)-4-(6-fluoroquinolin-4-yl)cyclohexyl)ethyl)-1H-imidazo[4,5-c]pyridine-6-carboxamide] gave an EC50 of 3.12 nM.

Compound `CC(c1nc2cc(C(=O)NC3CC3)c(F)cc2[nH]1)[C@H]1CC[C@@H](c2ccnc3ccc(F)cc32)CC1` (stereo partly drawn) [Example 20, N-cyclopropyl-6-fluoro-2-(1-((1s,4S)-4-(6-fluoroquinolin-4-yl)cyclohexyl)ethyl)-1H-benzo[d]imidazole-5-carboxamide] has an EC50 of 6.9 nM.

`CC(c1nc2c(F)c(F)c(C(=O)NC3CC3)cc2[nH]1)[C@H]1CC[C@@H](c2ccnc3ccc(F)cc32)CC1` (some centres unmarked) [Example 21, N-cyclopropyl-4,5-difluoro-2-(1-((1s,4s)-4-(6-fluoroquinolin-4-yl)cyclohexyl)ethyl)-1H-benzo[d]imidazole-6-carboxamide] was tested, and the EC50 was 8.9 nM.

`CC(c1nc2cc(C(=O)N(C)C)ccc2[nH]1)[C@H]1CC[C@@H](c2ccnc3ccc(F)cc32)CC1` (some centres unmarked) [Example 8, 2-(1-((1s,4s)-4-(6-fluoroquinolin-4-yl)cyclohexyl)ethyl)-N,N-dimethyl-1H-benzo[d]imidazole-5-carboxamide] gave an EC50 of 46.1 nM.

With `CNC(=O)c1cc2[nH]c(C(C)[C@H]3CC[C@@H](c4ccnc5ccc(F)cc54)CC3)nc2cn1` (mixture of isomers) [Example 23, 2-(1-((1s,4s)-4-(6-fluoroquinolin-4-yl)cyclohexyl)ethyl)-N-methyl-1H-imidazo[4,5-c]pyridine-6-carboxamide] the EC50 was 7.12 nM.

`C[C@@H](c1nc2ccc(C(=O)NC3CC3)cc2[nH]1)[C@H]1CC[C@@H](c2ccnc3ccc(F)cc32)CC1` [Example 9, N-cyclopropyl-2-((R)-1-((1s,4S)-4-(6-fluoroquinolin-4-yl)cyclohexyl)ethyl)-1H-benzo[d]imidazole-6-carboxamide] showed an EC50 of 12.6 nM.

With `C[C@@H](c1nc2ccc(C(=O)NC(C)(C)C)cc2[nH]1)[C@H]1CC[C@@H](c2ccnc3ccc(F)cc32)CC1` [Example 3, N-(tert-butyl)-2-((R)-1-((1s,4S)-4-(6-fluoroquinolin-4-yl)cyclohexyl)ethyl)-1H-benzo[d]imidazole-6-carboxamide] the EC50 was 74.5 nM.

`COCCNC(=O)c1ccc2nc([C@H](C)[C@H]3CC[C@H](c4ccnc5ccc(F)cc54)CC3)[nH]c2c1` [Example 12, 2-((R)-1-((1r,4R)-4-(6-fluoroquinolin-4-yl)cyclohexyl)ethyl)-N-(2-methoxyethyl)-1H-benzo[d]imidazole-6-carboxamide] was tested, and the EC50 was 959 nM.

— patent publication US20220227762A1, “AMIDE-SUBSTITUTED IMIDAZO COMPOUNDS AS SELECTIVE INHIBITORS OF INDOLEAMINE 2,3-DIOXYGENASES” (BEIGENE, LTD., priority 2019, published 2022)
